According to US9108905B2, “TRPA1 antagonists” (AbbVie Inc., priority 2008, dated 2015):
pIC50: −log10 of the molar value.

Experiments:
[1] = biological target: Human TRPA1 (Homo sapiens (Human), UniProt O75762); experiment: FLIPR based intracellular Ca2+ assay and membrane potential assay, inhibition of AITC-activated TRPA1; format: cell-based; conditions: Table 1, AITC as agonist, HEK293-F cells transiently expressing human TRPA1
Protocol: Molecular biology and transient expression were performed as described in Chen, J. et al., Journal of Biomolecular Screening 2007, 12, 61-69. Briefly, TRPA1 full length cDNA was amplified from human dorsal root ganglia total RNA (BD Bioscience Clontech, Palo Alto, Calif., USA) and was cloned into pcDNA3.1/V5-His Topo vector (Invitrogen, Carlsbad, Calif.). Large scale transient transfection was performed using the FreeStyle™ 293 Expression System as recommended by the manufacturer (Invitrogen). HEK293-F cells were grown in suspension in flasks (cell volume 30 mL to 1 liter) or in a Wave Bioreactor (Wave Biotech, Somerset, N.J.) (6 liters). To support high density, suspension culture and transfection, cells were cultured in FreeStyle 293 media, an optimized, serum free formulation. 293fectin™ (Invitrogen) was used as transfection reagent. In a transfection of 3×10^7 cells (30 mL volume), 30 μg of plasmid DNA and 40 μL 293 fectin were used. For a larger volume transfection, each reagent was scaled up proportionally. Two days post-transfection, cells were harvested by centrifugation (1000×g, 5 minutes) and resuspended to a density of 1.5×10^7 cells/mL in freezing medium (Freestyle media/10% serum/10% DMSO). Cells were transferred into cryovials in 2 mL aliquots, and these vials were placed in Nalgene Mr. Frosty slow-freeze devices (Sigma-Aldrich, St. Louis, Mo.) at −80° C. As needed, vials were removed from −80° C. and quickly thawed in a 37° C. water bath. Cells were aseptically transferred into conical tubes containing Freestyle media (10 mL/vial). After centrifugation at 1,000×g for 3-5 minutes, medium was removed by aspiration and cells were resuspended in Freestyle medium at desired densities (typically 1×10^6 cells/mL). Re-suspended cells were seeded into black-walled clear-bottom 96-well Biocoat™ poly-D-lysine assay plates (BD Biosciences, Bedford, Mass.)(10^5 cells/well) and incubated overnight at 37° C. under a humidified 5% CO2 atmosphere.
FLIPR Based Intracellular Ca^2+ Assay and Membrane Potential Assay
Ca^2+ influx was measured using a FLIPR calcium assay kit (R8033; Molecular Devices, Sunnyvale, Calif.). The Ca^2+ indicator dye was dissolved in Hanks' balanced salt solution supplemented with 20 mM HEPES buffer (HBSS/HEPES) according to the manufacturer instructions. […] (4×) solutions of the test compounds were prepared in HBSS/HEPES, and 50 μL were added to the cells at a delivery rate of 10 μL/sec. Changes in fluorescence were measured over time in a fluorometric imaging plate reader (FLIPR, Molecular Devices). Two additions were made over the course of an experimental run. For agonist experiments, assay buffer was added at the 10 s time point, followed by addition of agonist at the 3 minute 10 sec time point. For antagonist experiments, the antagonist was added at the 10 sec time point, followed by addition of the agonist 3 minutes later. Final assay volume for both the agonist and antagonist experiments was 200 μL. Total length of an experimental run was 6.5 minutes.
Data was analyzed with GraphPad Prism® software (GraphPad Software, San Diego, Calif.), using a four-parameter logistic Hill equation to curve-fit concentration-effect data and derive EC50 or IC50 values. Numerical values are reported as mean±SEM (n=number of experiments). SEM is calculated by dividing the standard deviation by the square root of the sample size […].
Changes in membrane potential were measured in hTRPA1-expressing LSTT cells using a FLIPR membrane potential assay kit (R8034, Molecular Devices). The procedure for thawing and plating the LSTT cells was identical to the Ca^2+ influx assay (see above). The membrane potential dye was dissolved in HBSS/HEPES buffer according to the manufacturer's instructions, and then cells were loaded with dye (100 μL/well) for 45 minutes to 2 hours at room temperature.

[2] = Plasma concentration measured in the osteoarthritis grip force model; format: in vivo, rats
Description: (§1) FIG. 1—depicts the effect of Example 1 on hindlimb grip force in osteoarthritic rats measurement system (Columbus Instruments, Columbus, Ohio). […] During testing, each rat was gently restrained by grasping around its rib cage and then allowed to grasp the wire mesh frame (10-12 cm^2) attached to the strain gauge. The experimenter then moved the animal in a rostral-to-caudal direction until the grip was broken. Each rat was sequentially tested twice at approximately 2-minute interval to obtain a raw mean grip force (CFmax). This raw mean grip force data was in turn converted to a maximum hind limb compressive force (CFmax) (gram force) per kg body weight for each animal. A group of age matched naïve animals was added to each experiment and the data obtained from the different dose groups for the compound being tested were compared to the naïve group. […] At the 100 μmol/kg dose in the osteoarthritis grip force model, the measured plasma concentration of Example 1 was 6.2 μM.

[3] = test system: osteoarthritic rats; experiment: Effects on hind limb grip force in MIA-induced osteoarthritic rats; format: in vivo
Protocol: Unilateral knee joint osteoarthritis was induced in the rats by a single intra-articular (i.a.) injection of sodium monoiodoacetate (MIA) (Sigma, St. Louis, Mo.) (3 mg in 0.05 mL sterile isotonic saline) into the joint cavity using a 26G needle under light (2-4%) halothane (Halocarbon Laboratories, River Edge, N.J.) anesthesia. Following injection, the animals were allowed to recover from the effects of anesthesia (usually 5-10 minutes) before returning them to their home cages. Animals were tested 21 days after MIA injection. Measurements of peak hind limb grip force were conducted by recording the maximum compressive force exerted on the hind limb strain gauge setup, in a commercially available grip force
as §1, with “(CFmax).” for “(CFmax). This raw mean grip force data was in turn converted to a maximum hind limb compressive force (CFmax) (gram force) per kg body weight for each animal. A group of age matched naïve animals was added to each experiment and the data obtained from the different dose groups for the compound being tested were compared to the naïve group.”

[4] = Pharmacokinetics after oral dose in fasted male Sprague-Dawley rats (plasma and brain); format: in vivo; conditions: rat
Protocol: Groups of three fasted male Sprague-Dawley rats received a 10 μmol/kg ([…]) oral dose of the test compound, administered by gavage. The compounds were prepared as a solution in a 10% DMSO/poly(ethylene glycol)-400 (v/v). Blood samples were obtained from each animal at various time points up to eight hours after dosing.
Test compound was selectively extracted from plasma and brain homogenate using liquid-liquid extraction with tert-butylmethylether. The compounds of interest were separated from co-extracted contaminants on a 50×3 mm, Luna CN column (Phenomenex), with an acetonitrile:0.1% aqueous trifluoroacetic acid mobile phase at a flow rate of 0.35 ml/min. Plasma concentrations were determined by HPLC-MS/MS on an API2000 with Turbo Ion Spray interface, with MRM detection in the positive ionization mode. To calibrate compound concentration, a separate portion of each tissue sample was spiked with a known quantity of test compound and analyzed simultaneously with the samples.

Human TRPA1, sequence (O75762 whole entry): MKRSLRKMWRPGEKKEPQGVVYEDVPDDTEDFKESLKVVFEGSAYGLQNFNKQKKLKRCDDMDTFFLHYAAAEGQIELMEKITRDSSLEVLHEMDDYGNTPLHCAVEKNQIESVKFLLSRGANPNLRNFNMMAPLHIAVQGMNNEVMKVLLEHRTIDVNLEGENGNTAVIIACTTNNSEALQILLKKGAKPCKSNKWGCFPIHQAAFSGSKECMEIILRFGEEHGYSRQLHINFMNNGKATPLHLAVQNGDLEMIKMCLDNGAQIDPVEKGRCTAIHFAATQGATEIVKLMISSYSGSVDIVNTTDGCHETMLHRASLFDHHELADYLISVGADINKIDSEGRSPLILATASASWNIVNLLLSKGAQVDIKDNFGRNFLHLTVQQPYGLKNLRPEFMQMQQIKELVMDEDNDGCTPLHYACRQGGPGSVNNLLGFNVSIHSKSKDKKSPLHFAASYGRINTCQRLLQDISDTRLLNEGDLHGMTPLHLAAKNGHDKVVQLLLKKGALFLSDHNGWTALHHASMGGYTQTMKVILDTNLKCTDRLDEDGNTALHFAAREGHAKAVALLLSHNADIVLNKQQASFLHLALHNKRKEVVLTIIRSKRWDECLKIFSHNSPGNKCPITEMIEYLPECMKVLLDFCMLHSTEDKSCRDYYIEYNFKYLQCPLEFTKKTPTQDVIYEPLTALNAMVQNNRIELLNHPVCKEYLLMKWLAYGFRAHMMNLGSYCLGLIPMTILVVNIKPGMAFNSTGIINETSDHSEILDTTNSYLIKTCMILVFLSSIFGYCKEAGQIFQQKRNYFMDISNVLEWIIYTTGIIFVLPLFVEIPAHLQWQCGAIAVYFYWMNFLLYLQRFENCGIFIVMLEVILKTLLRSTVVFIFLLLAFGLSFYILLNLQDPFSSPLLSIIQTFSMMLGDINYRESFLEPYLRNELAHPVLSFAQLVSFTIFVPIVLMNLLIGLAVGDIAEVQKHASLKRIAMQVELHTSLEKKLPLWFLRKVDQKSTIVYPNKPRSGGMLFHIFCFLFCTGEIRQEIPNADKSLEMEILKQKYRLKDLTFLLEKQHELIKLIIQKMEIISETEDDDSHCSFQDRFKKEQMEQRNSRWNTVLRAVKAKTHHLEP

| Compound | pIC50 [1] | also measured |
| --- | --- | --- |
| CCC(=N\O)/C(C)=C/c1ccc(F)c(Cl)c1 [Example 9, (1E,3E)-1-(3-chloro-4-fluorophenyl)-2-methylpent-1-en-3-one oxime] | 5.22 | – |
| CCC(=N\O)/C(C)=C/c1ccc(F)cc1 [Example 1, (1E,3E)-1-(4-fluorophenyl)-2-methylpent-1-en-3-one oxime] | – | measured plasma concentration ([2]; 100 μmol/kg oral dose, osteoarthritis grip force model): 6.2 µM; plasma and brain exposure ([2]; with increasing oral dose, rat): excellent plasma and brain exposure; ED50 ([3]; Rattus norvegicus, po, 21 days after MIA injection, 95% CI 79-158 μmol/kg, read-out: ED50, hindlimb grip force): 112 µmol/kg; efficacy in osteoarthritis grip force model ([3]; p.o.): fully efficacious; Cmax ([4]; 10 umol/kg, oral, plasma): 720 nM; Kp ([4]; brain and plasma, 10 μmol/kg, after oral administration, text calls it brain/plasma ratio): 1.2; bioavailability ([4]; plasma, 10 umol/kg, oral gavage, solution in 10% DMSO/PEG-400): 38% |
| CCC(=N\O)/C(C)=C/c1ccc(F)c(C(F)(F)F)c1 [Example 18, (1E,3E)-1-[4-fluoro-3-(trifluoromethyl)phenyl]-2-methylpent-1-en-3-one oxime] | < 4.00 | – |
| CCCC(/C=C/c1ccc(F)cc1)=N\O [Example 12, (1E,3E)-1-(4-fluorophenyl)hex-1-en-3-one oxime] | 5.23 | – |
| CC(=C\c1ccc(F)cc1)/C(=N\O)C(C)C [Example 7, (1E,3Z)-1-(4-fluorophenyl)-2,4-dimethylpent-1-en-3-one oxime] | 6.07 | – |
| CCC(=N\O)/C(C)=C/c1ccc(F)c(F)c1 [Example 14, (1E,3E)-1-(3,4-difluorophenyl)-2-methylpent-1-en-3-one oxime] | 6.24 | – |
| CCC(=N\O)/C(C)=C/c1ccc(F)c(C)c1 [Example 17, (1E,3E)-1-(4-fluoro-3-methylphenyl)-2-methylpent-1-en-3-one oxime] | < 4.00 | – |
| CC(/C=C/c1ccc(F)cc1)=N\O [Example 11, (2E,3E)-4-(4-fluorophenyl)but-3-en-2-one oxime] | 4.69 | – |
| CCC(=N\O)/C(C)=C/c1cc(F)c(F)c(F)c1 [Example 15, (1E,3E)-2-methyl-1-(3,4,5-trifluorophenyl)pent-1-en-3-one oxime] | 5.33 | – |
| CC(=C\c1ccc(F)cc1)/C(=N/O)C(C)C [Example 8, (1E,3E)-1-(4-fluorophenyl)-2,4-dimethylpent-1-en-3-one oxime] | 5.48 | – |
| CCCC(=N\O)/C(C)=C/c1ccc(F)cc1 [Example 4, (1E,3E)-1-(4-fluorophenyl)-2-methylhex-1-en-3-one oxime] | 6.30 | – |
| CCCCC(/C=C/c1ccc(F)cc1)=N\O [Example 16, (1E,3E)-1-(4-fluorophenyl)hept-1-en-3-one oxime] | < 4.00 | – |

Continued, in another order:

| pIC50 [1] | Compound | also measured |
| --- | --- | --- |
| 5.02 | (1E,3E)-1-(4-fluorophenyl)pent-1-en-3-one oxime and (1E,3Z)-1-(4-fluorophenyl)pent-1-en-3-one oxime, about 1:1 mixture [Example 13] | – |
| 5.34 | CCC(=N\O)/C(C)=C/c1ccccc1F [Example 3, (1E,3E)-1-(2-fluorophenyl)-2-methylpent-1-en-3-one oxime] | – |
| 5.10 | CC(=C\c1ccc(F)cc1)/C(=N/O)C(C)(C)C [Example 5, (1E,3E)-1-(4-fluorophenyl)-2,4,4-trimethylpent-1-en-3-one oxime] | – |
| 5.36 | CCCCC(=N\O)/C(C)=C/c1ccc(F)cc1 [Example 6, (1E,3E)-1-(4-fluorophenyl)-2-methylhept-1-en-3-one oxime] | – |
